Molecules are shown by their SMILES. Bounds are passed on as bounds.

Usually IC50 stands for the concentration at which inhibition is half-maximal.

Test [1] has as its target Protein-arginine deiminase type-4 (Homo sapiens, UniProt Q9UM07). The experiment in a line: Selectivity interaction (Fluorescence polarization ligand binding assay (2 mM calcium)) EUB0000266bCl PADI4.
In test [2] the target is 5'-AMP-activated protein kinase catalytic subunit alpha-1 (Homo sapiens, UniProt Q13131). The test can be described thus: Selectivity interaction (ProQinase) EUB0000171b PRKAA1.
5'-AMP-activated protein kinase catalytic subunit alpha-1, sequence (Q13131 whole entry, looked up): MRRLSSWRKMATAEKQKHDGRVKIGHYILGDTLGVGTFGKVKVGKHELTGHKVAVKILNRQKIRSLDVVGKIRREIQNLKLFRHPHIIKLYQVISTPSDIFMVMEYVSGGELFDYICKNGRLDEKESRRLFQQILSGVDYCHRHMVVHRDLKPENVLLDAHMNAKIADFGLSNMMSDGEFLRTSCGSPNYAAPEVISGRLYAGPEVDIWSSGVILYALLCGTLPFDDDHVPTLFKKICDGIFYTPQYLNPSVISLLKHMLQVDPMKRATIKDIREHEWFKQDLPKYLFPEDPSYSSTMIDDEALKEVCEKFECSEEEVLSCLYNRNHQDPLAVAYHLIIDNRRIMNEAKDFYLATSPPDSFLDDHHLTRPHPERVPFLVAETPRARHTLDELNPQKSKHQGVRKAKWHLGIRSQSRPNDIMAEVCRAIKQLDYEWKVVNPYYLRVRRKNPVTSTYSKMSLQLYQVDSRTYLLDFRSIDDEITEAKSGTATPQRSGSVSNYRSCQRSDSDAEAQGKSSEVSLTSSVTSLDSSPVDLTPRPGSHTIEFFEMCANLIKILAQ
In test [3] the target is Dual specificity protein kinase CLK2 (Homo sapiens, UniProt P49760). The test can be described thus: Selectivity interaction (Ambit KINOMEscan and KiNATiv profiling in Jurkat cells) EUB0000090b CLK2. The format is cell-based. Conditions: at 1 µM.
Test [4] has as its system Mast/stem cell growth factor receptor Kit (Homo sapiens), P10721 [V559D,T670I]. Conditions: at 10 µM.
Test [5] deals with T1, Ephrin type-B receptor 4 (Homo sapiens) (UniProt P54760).
T1 sequence (whole entry): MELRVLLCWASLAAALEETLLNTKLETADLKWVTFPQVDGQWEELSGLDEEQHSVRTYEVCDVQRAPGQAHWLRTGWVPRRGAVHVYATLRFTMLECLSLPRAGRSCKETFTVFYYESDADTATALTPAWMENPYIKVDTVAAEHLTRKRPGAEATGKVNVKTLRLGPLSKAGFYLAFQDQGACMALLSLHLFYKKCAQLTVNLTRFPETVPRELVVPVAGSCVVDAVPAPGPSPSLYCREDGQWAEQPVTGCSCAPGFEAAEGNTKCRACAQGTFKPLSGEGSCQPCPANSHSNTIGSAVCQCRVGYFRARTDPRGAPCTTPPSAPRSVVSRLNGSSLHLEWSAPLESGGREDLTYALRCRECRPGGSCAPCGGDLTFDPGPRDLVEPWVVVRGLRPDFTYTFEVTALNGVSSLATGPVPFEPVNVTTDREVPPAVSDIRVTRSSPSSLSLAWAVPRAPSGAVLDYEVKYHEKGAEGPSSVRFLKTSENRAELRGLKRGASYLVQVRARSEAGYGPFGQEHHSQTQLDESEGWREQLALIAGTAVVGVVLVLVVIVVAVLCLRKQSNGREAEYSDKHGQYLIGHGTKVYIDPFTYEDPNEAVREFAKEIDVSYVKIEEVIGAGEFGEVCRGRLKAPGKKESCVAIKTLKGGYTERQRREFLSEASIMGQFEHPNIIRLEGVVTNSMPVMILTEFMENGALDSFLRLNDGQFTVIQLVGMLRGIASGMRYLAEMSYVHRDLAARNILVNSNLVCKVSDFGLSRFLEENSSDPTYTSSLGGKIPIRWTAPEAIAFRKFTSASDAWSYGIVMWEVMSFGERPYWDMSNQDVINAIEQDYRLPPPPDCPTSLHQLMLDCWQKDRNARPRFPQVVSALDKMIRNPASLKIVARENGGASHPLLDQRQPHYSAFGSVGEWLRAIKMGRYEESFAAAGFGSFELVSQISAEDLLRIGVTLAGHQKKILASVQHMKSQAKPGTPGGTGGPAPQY
The test can be described thus: Selectivity interaction (Millipore kinase profiler) EUB0000124b EPHB4. Conditions: at 10 µM.

Test [6] concerns the target Protein kinase C theta type (Homo sapiens, UniProt Q04759). The experiment in a line: Selectivity interaction (KinomeScan (DiscoverX)) EUB0001049a PRKCQ. Particulars: at 1 µM.
Test [7] concerns the target DNA (cytosine-5)-methyltransferase 3B (Homo sapiens) (UniProt Q9UBC3). The test can be described thus: Selectivity interaction (Transferase panel (protein, RNA, and DNA methyltransferases. and EP300 (acetyltransferase))) EUB0000270b DNMT3B.
Test [8] has as its target Ephrin type-A receptor 2 (Homo sapiens) (UniProt P29317). The experiment in a line: Selectivity interaction (KinomeScan (DiscoverX)) EUB0000607a EPHA2. Particulars: at 10 µM.
Test [9] relates to Phosphatidylinositol 4,5-bisphosphate 3-kinase catalytic subunit alpha isoform (Homo sapiens), P42336 [H1047Y]. Particulars: at 10 µM.
In test [10] the target is Tyrosine-protein kinase Lyn (Homo sapiens, UniProt P07948). The experiment in a line: Selectivity interaction (Kinase panel (Invitrogen)) EUB0000639a LYN. Conditions: at 200 nM.
Tyrosine-protein kinase Lyn, sequence (P07948 2-512 limits assumed): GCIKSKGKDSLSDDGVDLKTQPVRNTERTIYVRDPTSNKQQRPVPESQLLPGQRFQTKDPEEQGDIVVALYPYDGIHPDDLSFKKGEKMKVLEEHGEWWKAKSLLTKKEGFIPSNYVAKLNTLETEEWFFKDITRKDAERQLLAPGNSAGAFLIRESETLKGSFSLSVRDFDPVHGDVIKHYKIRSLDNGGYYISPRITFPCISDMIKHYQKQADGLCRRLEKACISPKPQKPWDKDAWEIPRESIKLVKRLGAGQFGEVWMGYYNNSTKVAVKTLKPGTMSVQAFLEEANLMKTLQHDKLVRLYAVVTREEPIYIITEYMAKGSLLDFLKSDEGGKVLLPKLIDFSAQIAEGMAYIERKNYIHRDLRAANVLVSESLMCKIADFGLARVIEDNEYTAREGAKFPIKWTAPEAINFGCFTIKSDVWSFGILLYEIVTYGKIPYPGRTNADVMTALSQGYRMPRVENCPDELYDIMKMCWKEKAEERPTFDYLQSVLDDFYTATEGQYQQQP
Test [11] concerns the target T2, Serine/threonine-protein kinase Sgk2 (Homo sapiens) (UniProt Q9HBY8).
T2 sequence (whole entry): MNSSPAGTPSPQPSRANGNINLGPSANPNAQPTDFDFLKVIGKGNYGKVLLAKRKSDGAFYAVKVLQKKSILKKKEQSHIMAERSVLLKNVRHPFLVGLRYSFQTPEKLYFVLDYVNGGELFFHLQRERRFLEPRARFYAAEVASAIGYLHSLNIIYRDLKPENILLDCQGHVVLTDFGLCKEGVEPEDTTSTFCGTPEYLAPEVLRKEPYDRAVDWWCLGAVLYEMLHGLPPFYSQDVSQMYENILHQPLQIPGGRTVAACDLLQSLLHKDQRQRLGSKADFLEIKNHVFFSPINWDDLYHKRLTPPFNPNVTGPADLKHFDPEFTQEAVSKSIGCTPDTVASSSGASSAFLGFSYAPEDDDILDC
The test can be described thus: Selectivity interaction (KinomeScan (DiscoverX)) EUB0000229b SGK2. Particulars: at 10 µM.

The target in test [12] is Serine/threonine-protein kinase PAK 1 (Homo sapiens) (UniProt Q13153). The test can be described thus: Selectivity interaction (Kinase panel (DSF assay)) EUB0001559a PAK1.
The target of test [13] is Serine/threonine-protein kinase PAK 4 (Homo sapiens, UniProt O96013). The experiment in a line: Selectivity interaction (KinomeScan (DiscoverX)) EUB0000595a PAK4. Conditions: at 10 µM.
Test [14] deals with T3, Phosphatidylinositol 5-phosphate 4-kinase type-2 alpha (Homo sapiens) (UniProt P48426).
T3 sequence (whole entry): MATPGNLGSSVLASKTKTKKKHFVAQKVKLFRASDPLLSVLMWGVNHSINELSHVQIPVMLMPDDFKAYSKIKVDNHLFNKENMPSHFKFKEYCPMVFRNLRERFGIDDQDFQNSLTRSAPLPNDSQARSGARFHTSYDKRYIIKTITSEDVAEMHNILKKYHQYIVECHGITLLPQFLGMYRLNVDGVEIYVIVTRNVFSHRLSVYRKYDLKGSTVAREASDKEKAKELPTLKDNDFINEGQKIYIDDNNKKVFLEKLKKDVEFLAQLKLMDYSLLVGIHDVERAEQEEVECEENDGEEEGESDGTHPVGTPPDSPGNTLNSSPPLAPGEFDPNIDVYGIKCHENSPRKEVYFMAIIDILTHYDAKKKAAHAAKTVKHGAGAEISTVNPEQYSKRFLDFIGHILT
The experiment in a line: Selectivity interaction (ActivX KiNativ screen (ex vivo kinase selectivity in human PBMCs)) EUB0001619a PIP4K2A. Type of test: cell-based. Particulars: PBMC, at 1 µM.

The target of test [15] is Acylglycerol kinase, mitochondrial (Homo sapiens) (UniProt Q53H12). The experiment in a line: Selectivity interaction (Kinase panel (KiNativ target engagement assay in Jurkat cells)) EUB0001635a AGK. Type of test: cell-based. Particulars: Selectivity number of off-targets 0.0, Selectivity number of targets 233.0, Source Knowledge https://www.sciencedirect.com/science/article/pii/S2451945619300674?via%3Dihub, at 1 µM.
Acylglycerol kinase, mitochondrial (Homo sapiens), sequence (Q53H12 whole entry): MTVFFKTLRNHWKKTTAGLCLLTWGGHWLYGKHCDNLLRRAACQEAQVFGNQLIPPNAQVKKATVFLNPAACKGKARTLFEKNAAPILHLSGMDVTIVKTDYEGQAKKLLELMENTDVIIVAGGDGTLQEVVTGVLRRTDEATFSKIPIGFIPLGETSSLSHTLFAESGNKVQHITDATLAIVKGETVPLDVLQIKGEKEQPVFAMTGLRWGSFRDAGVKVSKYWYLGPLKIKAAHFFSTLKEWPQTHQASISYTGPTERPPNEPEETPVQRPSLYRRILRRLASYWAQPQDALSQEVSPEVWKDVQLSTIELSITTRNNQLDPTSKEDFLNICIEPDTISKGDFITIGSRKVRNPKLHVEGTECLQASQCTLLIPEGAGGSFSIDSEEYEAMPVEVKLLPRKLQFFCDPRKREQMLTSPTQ

Mast/stem cell growth factor receptor Kit (Homo sapiens), P10721 [V559D,T670I], sequence (P10721 whole entry V559D/T670I): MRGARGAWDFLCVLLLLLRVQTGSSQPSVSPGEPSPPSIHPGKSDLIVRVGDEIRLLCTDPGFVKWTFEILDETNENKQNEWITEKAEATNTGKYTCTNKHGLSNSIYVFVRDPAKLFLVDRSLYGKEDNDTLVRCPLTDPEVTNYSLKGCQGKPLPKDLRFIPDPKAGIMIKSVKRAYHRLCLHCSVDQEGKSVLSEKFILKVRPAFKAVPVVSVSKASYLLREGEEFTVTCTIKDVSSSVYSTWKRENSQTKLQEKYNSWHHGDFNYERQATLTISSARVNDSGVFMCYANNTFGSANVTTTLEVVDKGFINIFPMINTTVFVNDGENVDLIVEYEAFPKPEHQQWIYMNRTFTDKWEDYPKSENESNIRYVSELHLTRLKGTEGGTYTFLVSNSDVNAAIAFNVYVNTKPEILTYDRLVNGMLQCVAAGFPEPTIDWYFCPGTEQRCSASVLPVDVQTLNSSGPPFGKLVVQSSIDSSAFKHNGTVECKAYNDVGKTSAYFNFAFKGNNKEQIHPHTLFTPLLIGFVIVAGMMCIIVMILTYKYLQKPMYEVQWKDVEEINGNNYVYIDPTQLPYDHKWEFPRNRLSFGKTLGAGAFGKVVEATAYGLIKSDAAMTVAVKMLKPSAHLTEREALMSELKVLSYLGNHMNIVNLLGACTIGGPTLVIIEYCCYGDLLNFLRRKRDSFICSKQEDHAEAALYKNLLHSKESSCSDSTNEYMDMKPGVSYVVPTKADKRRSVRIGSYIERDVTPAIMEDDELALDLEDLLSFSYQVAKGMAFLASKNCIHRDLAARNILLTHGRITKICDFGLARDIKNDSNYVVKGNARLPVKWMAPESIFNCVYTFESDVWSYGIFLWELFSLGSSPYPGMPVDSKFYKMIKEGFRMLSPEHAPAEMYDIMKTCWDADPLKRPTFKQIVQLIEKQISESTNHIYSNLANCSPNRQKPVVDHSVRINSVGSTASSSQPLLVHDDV
Protein kinase C theta type, sequence (Q04759 whole entry, looked up): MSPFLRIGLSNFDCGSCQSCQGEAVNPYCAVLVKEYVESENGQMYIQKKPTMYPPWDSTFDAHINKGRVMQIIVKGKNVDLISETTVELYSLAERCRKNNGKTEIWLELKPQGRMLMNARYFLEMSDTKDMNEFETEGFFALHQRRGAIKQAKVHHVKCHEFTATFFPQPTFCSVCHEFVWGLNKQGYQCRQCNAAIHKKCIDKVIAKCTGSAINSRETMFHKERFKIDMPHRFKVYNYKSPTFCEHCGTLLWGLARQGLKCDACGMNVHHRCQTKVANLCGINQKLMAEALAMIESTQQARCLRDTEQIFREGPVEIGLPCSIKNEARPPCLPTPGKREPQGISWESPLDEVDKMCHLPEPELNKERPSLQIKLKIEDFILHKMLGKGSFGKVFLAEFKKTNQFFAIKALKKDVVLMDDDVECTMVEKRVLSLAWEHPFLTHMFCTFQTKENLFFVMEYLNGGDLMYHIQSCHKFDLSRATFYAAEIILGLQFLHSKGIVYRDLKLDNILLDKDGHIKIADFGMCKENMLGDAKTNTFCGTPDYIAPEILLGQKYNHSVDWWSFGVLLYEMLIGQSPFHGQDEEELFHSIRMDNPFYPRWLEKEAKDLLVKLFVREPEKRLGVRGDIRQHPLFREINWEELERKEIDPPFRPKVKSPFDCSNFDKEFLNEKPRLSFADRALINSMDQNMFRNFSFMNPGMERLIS
Protein-arginine deiminase type-4, sequence (Q9UM07 whole entry): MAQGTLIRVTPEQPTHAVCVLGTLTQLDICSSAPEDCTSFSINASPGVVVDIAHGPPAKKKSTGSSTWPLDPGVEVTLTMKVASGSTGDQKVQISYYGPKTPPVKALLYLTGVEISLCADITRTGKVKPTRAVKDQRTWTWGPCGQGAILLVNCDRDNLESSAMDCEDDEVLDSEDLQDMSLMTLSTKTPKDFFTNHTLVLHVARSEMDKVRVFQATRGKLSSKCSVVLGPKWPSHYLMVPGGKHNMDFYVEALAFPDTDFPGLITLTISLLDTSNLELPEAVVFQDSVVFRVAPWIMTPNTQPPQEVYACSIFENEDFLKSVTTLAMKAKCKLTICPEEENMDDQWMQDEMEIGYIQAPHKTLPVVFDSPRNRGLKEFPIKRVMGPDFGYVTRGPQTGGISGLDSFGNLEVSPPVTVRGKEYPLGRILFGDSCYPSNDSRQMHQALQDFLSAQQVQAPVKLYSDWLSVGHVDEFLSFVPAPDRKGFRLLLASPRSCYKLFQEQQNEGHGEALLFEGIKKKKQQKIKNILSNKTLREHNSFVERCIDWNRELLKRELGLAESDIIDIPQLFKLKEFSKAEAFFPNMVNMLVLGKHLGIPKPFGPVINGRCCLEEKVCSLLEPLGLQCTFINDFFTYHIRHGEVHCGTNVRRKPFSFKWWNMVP
Ephrin type-A receptor 2 (Homo sapiens), sequence (P29317 whole entry, canonical isoform): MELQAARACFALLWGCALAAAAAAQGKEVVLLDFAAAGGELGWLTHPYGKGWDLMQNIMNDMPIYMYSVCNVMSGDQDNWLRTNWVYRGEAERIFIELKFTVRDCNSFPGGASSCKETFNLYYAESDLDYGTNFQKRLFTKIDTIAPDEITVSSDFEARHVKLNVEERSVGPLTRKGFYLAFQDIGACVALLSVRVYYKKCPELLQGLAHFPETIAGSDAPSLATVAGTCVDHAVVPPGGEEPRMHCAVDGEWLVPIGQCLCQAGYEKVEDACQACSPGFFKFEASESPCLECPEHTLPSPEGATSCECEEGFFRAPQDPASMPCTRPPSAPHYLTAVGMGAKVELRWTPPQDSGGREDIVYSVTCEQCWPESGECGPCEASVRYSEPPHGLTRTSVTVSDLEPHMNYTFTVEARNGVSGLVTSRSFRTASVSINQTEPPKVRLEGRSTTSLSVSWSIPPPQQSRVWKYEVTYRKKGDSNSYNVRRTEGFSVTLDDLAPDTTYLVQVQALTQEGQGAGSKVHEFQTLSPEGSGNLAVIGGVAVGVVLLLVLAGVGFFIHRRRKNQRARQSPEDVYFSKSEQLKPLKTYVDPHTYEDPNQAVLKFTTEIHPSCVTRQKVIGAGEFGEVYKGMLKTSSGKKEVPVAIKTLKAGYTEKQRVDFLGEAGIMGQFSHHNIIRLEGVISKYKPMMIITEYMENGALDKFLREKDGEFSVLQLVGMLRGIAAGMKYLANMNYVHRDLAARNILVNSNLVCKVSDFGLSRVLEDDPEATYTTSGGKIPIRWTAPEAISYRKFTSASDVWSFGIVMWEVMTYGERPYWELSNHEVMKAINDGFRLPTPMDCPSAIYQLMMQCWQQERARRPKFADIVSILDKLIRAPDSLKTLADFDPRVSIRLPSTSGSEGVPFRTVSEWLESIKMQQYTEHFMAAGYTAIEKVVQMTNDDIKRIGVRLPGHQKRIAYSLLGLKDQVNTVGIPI

For `CCn1c(-c2nc3cc(C(=O)N4CCCC(N)C4)ccc3n2C)cc2ccccc21` (configuration not stated), the half-inhibitory concentration (IC50) in test [1] was 250 nM.
As to `C=CC(=O)Nc1cccc(C(=O)Nc2ccc(Nc3cc(-c4[nH]c(SC)nc4C)ccn3)cc2)c1`, the % of control in test [2] (at 1 µM) worked out at 100%; in [2] (at 5 µM), 93%.
In test [3], `CN(C)C/C=C/C(=O)Nc1ccc(C(=O)N2CCCC(Nc3ncc(Cl)c(-c4c[nH]c5ccccc45)n3)C2)cc1` (configuration not stated) returned a % of control of 55%.
In test [4], `CCN(CC)CCCCNc1ncc2cc(-c3cc(OC)cc(OC)c3)c(NC(=O)NC(C)(C)C)nc2n1` returned a % of control of 100%.
The compound `CC(=O)Nc1cccc(-n2c(=O)n(C3CC3)c(=O)c3c(Nc4ccc(I)cc4F)n(C)c(=O)c(C)c32)c1` displayed a % of control in test [5] of 124%.
As for `COc1cc(Nc2nc(C)cc(-c3cnn4nc(OC)ccc34)n2)cc(C(F)(F)F)c1`, the % of control in test [6] came to 94%.
Take `Cc1cc(CN)cc(C)c1-c1ncn(C)c1-c1cncn1C`: the % activity was above 90% in [7] (at 1 µM) and above 80% in [7] (at 10 µM).
Turning to `CNC(=O)Nc1ccc(-c2nc(N3CC4CCC(C3)O4)c3cnn(C4CCC5(CC4)OCCO5)c3n2)cc1`, the % of control was 81% in test [8] and 9.6% in test [9].
`CC[C@@H]1[C@H](F)C(=O)N[C@@H]1COc1nccc2cc(C(N)=O)c(OC)cc12` [ZIMLOVISERTIB] came in with a % of inhibition in test [10] of 6.8%.
As to `COc1cc(N(C)c2ccnc3ccc(C(F)(F)F)cc23)cc(OC)c1OC`, the % binding in [11] was found to be 80%.
`CN(C(=O)c1cnn2cccnc12)c1cc2c(cc1N1CCOCC1)C(=O)N(C[C@@H](F)C(C)(C)O)C2` came in with a dTM in test [12] of -0.1 K.
Consider `COCC(=O)NC/C=C/c1ccc2ncnc(Nc3ccc(Oc4ccc(C)nc4)c(C)c3)c2c1` [CP-724714], for which the % of control in [13] came to 87%.
The compound `N#Cc1cccc(-c2c[nH]c3ncnc(N4CCOCC4)c23)c1` returned a % of inhibition in [14] of 16%.
For the compound `C=CC(=O)Nc1ccc(C(=O)Nc2[nH]nc3c2CN(C(=O)N[C@H](CN(C)C)c2ccccc2)C3(C)C)cc1`, the % of engagement in test [15] was -3.9%.
